How the values were obtained:
[1] = system: DD tumor cells from 2 DDLPS PDX models; test: Ex vivo adipocytic differentiation of DD tumor cells from DDLPS PDX models; format: cell-based, human; conditions: ex vivo/in vitro, transcriptomic and phenotypic level
Description: DDLPS tumor cells keep the multipotent properties of their progenitors. […] Adipocytic differentiation is confirmed with the detection of green vacuoles (Bodipy staining) and osteogenic differentiation by red staining after Alizarin red treatment (Data not shown).
(§1) The inventors also investigated the role of TGFβ in adipocytic differentiation in DDLPS, particularly advanced DDLPS using several TGFβ inhibitors, of a different mode of action and of different nature, such as compounds selected from the group consisting of TGFβ receptor R1/R2 inhibitors LY2109761 and LY364947; monoclonal anti-TGFβ antibodies BX-BE0057 and fresolimumab; TGFβ ligand trap such as luspatercept (a fusion protein that traps TGFβ ligands preventing them from binding to Type II TGFβ receptors) and bintrafusp alfa (a Bifunctional Fusion Protein Targeting TGF-β and PD-L1) and TQB2858 (an anti-TGF-β/PD-L1 antibody).

[2] = system: TGFβ pathway; test: Ex vivo inhibition of TGFβ pathway in DDLPS PDX Sil10AS; format: cell-based, human
Description: Tests and assays for determining whether a compound is a TGFβ inhibitor are well known by the skilled person in the art such as described in Frey et al., 2022; Szymańska et al., 2020. Determining whether a compound is a TGFβ inhibitor may also be performed using by using recombinant TGFβ proteins, competitive binding assays and measuring the binding affinities, measuring activated TGF-β complexes with other factors to form a serine/threonine kinase complex that binds to TGF-β receptors. […] In another particular embodiment, a TGFβ inhibitor according to the invention is at least as effective as galunisertib and/or as SB431542 in reducing phosphorylation level of SMAD2 and/or SMAD3 protein. Antibodies and/or kits to detect and quantify said phosphorylation level are well known from the skilled in the art and are commercially available.
as §1

[3] = system: DDLPS PDX Sil10AS; test: Nude mice engrafted with DDLPS PDX Sil10AS: tumor growth and differentiation; format: in vivo
Method: 7 nude mice engrafted with the DDLPS PDX Sil10AS are treated with TGFβ inhibitor galunisertib. The tumor growth rate is compared to a control group of 7 nude mice engrafted with the same PDX model and treated with a vehicle. At the end of the experiment, tumor differentiation are assessed at the microscopic and transcriptomic level.

Row | Molecule | adipocytic differentiation of DD tumor cells [1] | inhibiting ex vivo TGFβ pathway, compared with galunisertib or SB431542 [2] | adipocytic differentiation of DD cells in treated PDX ([3]; DDLPS PDX in nude mice, assessed at the microscopic and transcriptomic level at end of experiment) | tumor growth ([3]; nude mice engrafted with DDLPS PDX Sil10AS, compared with vehicle group)
1 | fresolimumab: monoclonal anti-TGFβ antibody; CAS 948564-73-6 | restore adipocytic differentiation phenotype | at least as effective than galunisertib or SB431542 | – | –
2 | c1ccc(-c2nn3c(c2-c2ccnc4cc(OCCN5CCOCC5)ccc24)CCC3)nc1 [LY2109761] | restore adipocytic differentiation phenotype | at least as effective than galunisertib or SB431542 | – | –
3 | TGFβ | prevented | – | – | –
4 | c1ccc(-c2[nH]ncc2-c2ccnc3ccccc23)nc1 [LY364947] | restore adipocytic differentiation phenotype | at least as effective than galunisertib or SB431542 | – | –
5 | Cc1cccc(-c2nn3c(c2-c2ccnc4ccc(C(N)=O)cc24)CCC3)n1 [galunisertib] | restores adipocytic differentiation | – | restore adipocytic differentiation | reduce tumor growth
6 | NC(=O)c1ccc(-c2nc(-c3ccc4c(c3)OCO4)c(-c3ccccn3)[nH]2)cc1 [SB431542] | restores adipocytic differentiation | – | – | –
7 | bintrafusp alfa: Bifunctional Fusion Protein Targeting TGF-β and PD-L1; CAS 1918149-01-5 (antibody, chains of the INN, looked up, V domains shown) VH: EVQLLESGGGLVQPGGSLRLSCAASGFTFSSYIMMWVRQAPGKGLEWVSSIYPSGGITFYADTVKGRFTISRDNSKNTLYLQMNSLRAEDTAVYYCARIKLGTVTTVDYWGQGTLVTVSS VL: QSALTQPASVSGSPGQSITISCTGTSSDVGGYNYVSWYQQHPGKAPKLMIYDVSNRPSGVSNRFSGSKSGNTASLTISGLQAEDEADYYCSSYTSSSTRVFGTGTKVTVL | restore adipocytic differentiation phenotype | at least as effective than galunisertib or SB431542 | – | –
